Test results taken from patent US8163718B2, “Nucleoside analogues containing phosphonate or phosphonamide groups” (Gilead Sciences, Inc., priority 2008, dated 2012).

Each compound was assayed on HCT-15 (assay: Cytostatic cell culture assay (GI50), SRB). Conditions: Homo sapiens, HCT-15, 120 h; 5 days incubation.
Type: cell-based
Source text: (§1) The assay is based on quantification of cell counts by a colorimetric detection of the cell associated proteins. The assay relies on the ability of sulforhodamine B (SRB) to bind to protein components of cells that have been fixed to tissue-culture plates by trichloroacetic acid (TCA). SRB is a bright-pink aminoxanthene dye with two sulfonic groups that bind to basic amino-acid residues under mild acidic conditions, and dissociate under basic conditions. As the binding of SRB is stoichiometric, the amount of dye extracted from stained cells is directly proportional to the cell mass.
(§2) Cell lines: All cell lines were obtained from ATCC (Manassas, Va.). Cultivation media containing Glutamax, and trypsin were purchased from Invitrogen (Carlsbad, Calif.). Doxorubicin, Clofarabine, TCA and SRB were from Sigma-Aldrich (St. Louis, Mo.). Gemcitabine was obtained from Moravek Biochemicals (Brea, Calif.)
(§3) • 1. Trypsinize the sub-confluent cells, count them, and adjust the cell concentrations according to the cell counts listed in Table 1. • 2. Distribute the cells into the 96-well plates in 150 μL of media. Incubate the plates overnight in humidified CO2 incubator at 37° C. • 3. Fix one plate of each cell line with TCA. Discard the cultivation media from the plates by flicking them gently and add 100 ul cold 10% (vol/vol) TCA to each well. Incubate the plates at 4 degree refrigerator for 1 hour. Discard TCA from the plates by flicking them gently. Rinse plates four times in a washing basin containing tap water. Store the plates at room temperature. These plates represent cell counts on day zero. • 4. Prepare a set of medium solutions containing various concentrations of tested compounds by making 5-fold serial dilutions in 96-well plate. Add 50 μL of the diluted compounds per well. Include controls with untreated cells and cells treated with doxorubicin, clofarabine and gemcitabine. • 5. Incubate the plates for 5 days at 37° C. • 6. Fix the plates with TCA. Discard the cultivation media from the plates by flicking them gently and add 100 ul cold 10% (vol/vol) TCA to each well. Incubate the plates at 4 degree refrigerator for 1 hour. Discard TCA from the plates by flicking them gently. Rinse plates four times in a washing basin containing tap water. • 7. Remove excess water by tapping the plates face down, gently on a paper towel. Allow the plates to air-dry at room temperature. • 8. Add 100 ul of 0.057% SRB solution in 1% (vol/vol) acetic acid to each well of the plates fixed with TCA on day zero and five. Leave at room temperature for 30 minutes. • 9. Flick the plates gently to discard SRB. Rinse the plates four times with 1% (vol/vol) Acetic Acid. • 10. Store the plates at 37 degree incubator to facilitate faster drying. • 11. Once the plates are completely dry, add 200 ul of 10 mM Tris base solution (pH 10.5) to each well. Leave at room temperature for 30 minutes for SRB to solubilize. • 12. Measure the OD at 500 nm in a microplate reader • 13. Calculate the percentage of cell-growth inhibition using the next formula: % of control cell growth=100×(ODsample−mean ODday0)/(ODneg control−mean ODday0)
(§4) For GI50 determination, plot a dose-response curve between the compound concentration and percent of growth inhibition. GI50 values can be derived by fitting dose-response curves using sigmoidal dose response equation.

GI50 [nM] | Compound
2370 | CCCCOC(=O)[C@H](C)NP(=O)(COCCn1cnc2c(OC)nc(N)nc21)N[C@@H](C)C(=O)OCCCC [Example 27]
2350 | CCCOc1nc(N)nc2c1ncn2CCOCP(=O)(N1CCC[C@H]1C(=O)OCc1ccccc1)N1CCC[C@H]1C(=O)OCc1ccccc1 [Example 20]
> 10000 | CCCOc1nc(N)nc2c1ncn2CCOCP(=O)(N[C@@H](C)C(=O)OCC)N[C@@H](C)C(=O)OCC [Example 14]
2470 | CCCOC(=O)[C@@H]1CCCN1P(=O)(COCCn1cnc2c(OCCC)nc(N)nc21)N1CCC[C@H]1C(=O)OCCC [Example 23]

Compound | GI50 [nM]
CCCOc1nc(N)nc2c1ncn2CCOCP(=O)(Oc1ccccc1)N1CCC[C@H]1C(=O)OCC (stereo partly drawn) [Example 57] | 5200
CCCCOc1nc(N)nc2c1ncn2CCOCP(=O)(O)O [Example 4, [2-(2-Amino-6-butoxy-purin-9-yl)-ethoxymethyl]-phosphonic acid] | 2980

These compounds were tested on PC3 (assay: Cytostatic cell culture assay (GI50), SRB). Conditions: Homo sapiens, PC-3, 120 h; 5 days incubation.
Type: cell-based
Source text: as §1, §2, §3, §4

GI50 [nM] | Compound
13 | CCCCOC(=O)[C@H](C)NP(=O)(COCCn1cnc2c(OC)nc(N)nc21)N[C@@H](C)C(=O)OCCCC [Example 27]
111 | CCCOc1nc(N)nc2c1ncn2CCOCP(=O)(N1CCC[C@H]1C(=O)OCc1ccccc1)N1CCC[C@H]1C(=O)OCc1ccccc1 [Example 20]
275 | CCCOc1nc(N)nc2c1ncn2CCOCP(=O)(N[C@@H](C)C(=O)OCC)N[C@@H](C)C(=O)OCC [Example 14]
11 | CCCOC(=O)[C@@H]1CCCN1P(=O)(COCCn1cnc2c(OCCC)nc(N)nc21)N1CCC[C@H]1C(=O)OCCC [Example 23]

Compound | GI50 [nM]
CCCOc1nc(N)nc2c1ncn2CCOCP(=O)(Oc1ccccc1)N1CCC[C@H]1C(=O)OCC (stereo partly drawn) [Example 57] | 696
CCCCOc1nc(N)nc2c1ncn2CCOCP(=O)(O)O [Example 4, [2-(2-Amino-6-butoxy-purin-9-yl)-ethoxymethyl]-phosphonic acid] | 1440

What follows are compounds tested on BT-549 (assay: Cytostatic cell culture assay (GI50), SRB). Conditions: Homo sapiens, BT-549, 120 h; 5 days incubation.
Type: cell-based
Source text: as §1, §2, §3, §4

GI50 [nM] | Compound
33 | CCCCOC(=O)[C@H](C)NP(=O)(COCCn1cnc2c(OC)nc(N)nc21)N[C@@H](C)C(=O)OCCCC [Example 27]
167 | CCCOc1nc(N)nc2c1ncn2CCOCP(=O)(N1CCC[C@H]1C(=O)OCc1ccccc1)N1CCC[C@H]1C(=O)OCc1ccccc1 [Example 20]
266 | CCCOc1nc(N)nc2c1ncn2CCOCP(=O)(N[C@@H](C)C(=O)OCC)N[C@@H](C)C(=O)OCC [Example 14]
7 | CCCOC(=O)[C@@H]1CCCN1P(=O)(COCCn1cnc2c(OCCC)nc(N)nc21)N1CCC[C@H]1C(=O)OCCC [Example 23]

Compound | GI50 [nM]
CCCOc1nc(N)nc2c1ncn2CCOCP(=O)(Oc1ccccc1)N1CCC[C@H]1C(=O)OCC (stereo partly drawn) [Example 57] | 1120
CCCCOc1nc(N)nc2c1ncn2CCOCP(=O)(O)O [Example 4, [2-(2-Amino-6-butoxy-purin-9-yl)-ethoxymethyl]-phosphonic acid] | 3760

These compounds were tested on NCI-H23 (assay: Cytostatic cell culture assay (GI50), SRB). Conditions: Homo sapiens, NCI-H23, 120 h; 5 days incubation.
Type: cell-based
Source text: as §1, §2, §3, §4

GI50 [nM] | Compound
4 | CCCCOC(=O)[C@H](C)NP(=O)(COCCn1cnc2c(OC)nc(N)nc21)N[C@@H](C)C(=O)OCCCC [Example 27]
30 | CCCOc1nc(N)nc2c1ncn2CCOCP(=O)(N1CCC[C@H]1C(=O)OCc1ccccc1)N1CCC[C@H]1C(=O)OCc1ccccc1 [Example 20]
29 | CCCOc1nc(N)nc2c1ncn2CCOCP(=O)(N[C@@H](C)C(=O)OCC)N[C@@H](C)C(=O)OCC [Example 14]
3 | CCCOC(=O)[C@@H]1CCCN1P(=O)(COCCn1cnc2c(OCCC)nc(N)nc21)N1CCC[C@H]1C(=O)OCCC [Example 23]

Compound | GI50 [nM]
CCCOc1nc(N)nc2c1ncn2CCOCP(=O)(Oc1ccccc1)N1CCC[C@H]1C(=O)OCC (stereo partly drawn) [Example 57] | 241
CCCCOc1nc(N)nc2c1ncn2CCOCP(=O)(O)O [Example 4, [2-(2-Amino-6-butoxy-purin-9-yl)-ethoxymethyl]-phosphonic acid] | 633

The compounds below were run on HCT-116 (assay: Cytostatic cell culture assay (GI50), SRB). Conditions: Homo sapiens, HCT-116, 120 h; 5 days incubation.
Type: cell-based
Source text: as §1, §2, §3, §4

GI50 [nM] | Compound
23 | CCCCOC(=O)[C@H](C)NP(=O)(COCCn1cnc2c(OC)nc(N)nc21)N[C@@H](C)C(=O)OCCCC [Example 27]
264 | CCCOc1nc(N)nc2c1ncn2CCOCP(=O)(N1CCC[C@H]1C(=O)OCc1ccccc1)N1CCC[C@H]1C(=O)OCc1ccccc1 [Example 20]
488 | CCCOc1nc(N)nc2c1ncn2CCOCP(=O)(N[C@@H](C)C(=O)OCC)N[C@@H](C)C(=O)OCC [Example 14]
28 | CCCOC(=O)[C@@H]1CCCN1P(=O)(COCCn1cnc2c(OCCC)nc(N)nc21)N1CCC[C@H]1C(=O)OCCC [Example 23]

Compound | GI50 [nM]
CCCOc1nc(N)nc2c1ncn2CCOCP(=O)(Oc1ccccc1)N1CCC[C@H]1C(=O)OCC (stereo partly drawn) [Example 57] | 1610
CCCCOc1nc(N)nc2c1ncn2CCOCP(=O)(O)O [Example 4, [2-(2-Amino-6-butoxy-purin-9-yl)-ethoxymethyl]-phosphonic acid] | 3130

Each compound was assayed on A549 (assay: Cytostatic cell culture assay (GI50), SRB). Conditions: Homo sapiens, A549, 120 h; 5 days incubation.
Type: cell-based
Source text: as §1, §2, §3, §4

GI50 [nM] | Compound
26 | CCCCOC(=O)[C@H](C)NP(=O)(COCCn1cnc2c(OC)nc(N)nc21)N[C@@H](C)C(=O)OCCCC [Example 27]
530 | CCCOc1nc(N)nc2c1ncn2CCOCP(=O)(N1CCC[C@H]1C(=O)OCc1ccccc1)N1CCC[C@H]1C(=O)OCc1ccccc1 [Example 20]
381 | CCCOc1nc(N)nc2c1ncn2CCOCP(=O)(N[C@@H](C)C(=O)OCC)N[C@@H](C)C(=O)OCC [Example 14]
317 | CCCOC(=O)[C@@H]1CCCN1P(=O)(COCCn1cnc2c(OCCC)nc(N)nc21)N1CCC[C@H]1C(=O)OCCC [Example 23]

Compound | GI50 [nM]
CCCOc1nc(N)nc2c1ncn2CCOCP(=O)(Oc1ccccc1)N1CCC[C@H]1C(=O)OCC (stereo partly drawn) [Example 57] | 2420
CCCCOc1nc(N)nc2c1ncn2CCOCP(=O)(O)O [Example 4, [2-(2-Amino-6-butoxy-purin-9-yl)-ethoxymethyl]-phosphonic acid] | 4540

The compounds below were run on Hs-578 (assay: Cytostatic cell culture assay (GI50), SRB). Conditions: Hs578, 120 h; 5 days incubation.
Type: cell-based
Source text: as §1, §2, §3, §4

Compound | GI50 [nM]
CCCCOC(=O)[C@H](C)NP(=O)(COCCn1cnc2c(OC)nc(N)nc21)N[C@@H](C)C(=O)OCCCC [Example 27] | 53
CCCOc1nc(N)nc2c1ncn2CCOCP(=O)(N1CCC[C@H]1C(=O)OCc1ccccc1)N1CCC[C@H]1C(=O)OCc1ccccc1 [Example 20] | 132
CCCOc1nc(N)nc2c1ncn2CCOCP(=O)(Oc1ccccc1)N1CCC[C@H]1C(=O)OCC (stereo partly drawn) [Example 57] | 1110
CCCOc1nc(N)nc2c1ncn2CCOCP(=O)(N[C@@H](C)C(=O)OCC)N[C@@H](C)C(=O)OCC [Example 14] | 202
CCCCOc1nc(N)nc2c1ncn2CCOCP(=O)(O)O [Example 4, [2-(2-Amino-6-butoxy-purin-9-yl)-ethoxymethyl]-phosphonic acid] | 3320
CCCOC(=O)[C@@H]1CCCN1P(=O)(COCCn1cnc2c(OCCC)nc(N)nc21)N1CCC[C@H]1C(=O)OCCC [Example 23] | 4

Each compound was assayed on Du-145 (assay: Cytostatic cell culture assay (GI50), SRB). Conditions: Homo sapiens, DU-145, 120 h; 5 days incubation.
Type: cell-based
Source text: as §1, §2, §3, §4

GI50 [nM] | Compound
2 | CCCCOC(=O)[C@H](C)NP(=O)(COCCn1cnc2c(OC)nc(N)nc21)N[C@@H](C)C(=O)OCCCC [Example 27]
27 | CCCOc1nc(N)nc2c1ncn2CCOCP(=O)(N1CCC[C@H]1C(=O)OCc1ccccc1)N1CCC[C@H]1C(=O)OCc1ccccc1 [Example 20]
28 | CCCOc1nc(N)nc2c1ncn2CCOCP(=O)(N[C@@H](C)C(=O)OCC)N[C@@H](C)C(=O)OCC [Example 14]
1 | CCCOC(=O)[C@@H]1CCCN1P(=O)(COCCn1cnc2c(OCCC)nc(N)nc21)N1CCC[C@H]1C(=O)OCCC [Example 23]

Compound | GI50 [nM]
CCCOc1nc(N)nc2c1ncn2CCOCP(=O)(Oc1ccccc1)N1CCC[C@H]1C(=O)OCC (stereo partly drawn) [Example 57] | 372
CCCCOc1nc(N)nc2c1ncn2CCOCP(=O)(O)O [Example 4, [2-(2-Amino-6-butoxy-purin-9-yl)-ethoxymethyl]-phosphonic acid] | 235
